# Where a SMILES comes first, the peptide text is derived from it. [ ]: non-standard residue; d: D form. Phe(4-F) = N[C@@H](Cc1ccc(F)cc1)C(=O)O; NMeM = CN[C@@H](CCSC)C(=O)O
# Test system: mouse
# Assay: mouse hot plate test (analgesic activity)
# Type: in vivo
# Details: hot plate 52° C., 15 minutes after administration, latency until jump
# Method: In this test, a mouse is placed inside an upright acrylic cylinder comprising, as its base, a hot plate surface which is maintained at 52° C. The mouse is given, orally or by subcutaneous injection, a predetermined amount of test compound dissolved or suspended in a suitable carrier, and, 15 minutes after administration of the test compound, the mouse is placed on the hot plate surface. The latency in seconds until the mouse jumps from the hot plate surface is measured. […] This must occur in a dose range which produces no motor incoordination or incapacitation. The following Table records the ED50 results obtained from this test.
row,SMILES,"Analgesic Activity, Hot Plate Test ED50, mg./kg., subcutaneous [mg/kg]"
1,"CSCC[C@@H](C(N)=O)N(C)C(=O)[C@H](Cc1ccc(F)cc1)NC(=O)CNC(=O)[C@@H](C)NC(=O)[C@@H](N)Cc1ccc(O)cc1 [Example 1, L-Tyrosyl-D-alanylglycyl-L-p-fluorophenylalanyl-L-(N^α -methyl)methioninamide]",0.023
2,"COc1ccc([C@H](NC(=O)[C@H](Cc2ccc(F)cc2)NC(=O)CNC(=O)[C@@H](C)NC(=O)[C@@H](N)Cc2ccc(O)cc2)C(N)=O)cc1 [Example 2, L-Tyrosyl-D-alanylglycyl-L-p-fluorophenylalanyl-L-p-methoxyphenylglycinamide]",1.04
3,"C[C@@H](NC(=O)[C@@H](N)Cc1ccc(O)cc1)C(=O)NCC(=O)N[C@@H](Cc1ccc(F)cc1)C(=O)N[C@@H](C(N)=O)c1ccccc1 [Example 3 D-Pgl, L-Tyrosyl-D-alanyl-glycyl-L-p-fluorophenylalanyl-D-phenylglycinamide]",0.103
4,"C[C@@H](NC(=O)[C@@H](N)Cc1ccc(O)cc1)C(=O)NCC(=O)N[C@@H](Cc1ccc(F)cc1)C(=O)N[C@H](C(N)=O)c1ccccc1 [Example 3 L-Pgl, L-Tyrosyl-D-alanyl-glycyl-L-p-fluorophenylalanyl-L-phenylglycinamide]",0.063
5,"CSCC[C@@H](C(N)=O)N(C)C(=O)[C@H](Cc1ccc(F)cc1)NC(=O)CNC(=O)[C@H](NC(=O)[C@@H](N)Cc1ccc(O)cc1)[C@H](C)O [Example 4, L-Tyrosyl-D-threonylglycyl-L-p-fluorophenylalanyl-L-(N^α -methyl)methioninamide] (H-Y[dT]G[Phe(4-F)][NMeM]-NH2)",0.088

# Reference: patent publication US4351763A, “Pharmacologically active peptides” (Eli Lilly and Company, priority 1981, dated 1982)
